The values below come from PubChem BioAssay (NCI).

Common to all, as to experiment: NCI-60 cell line screen, 48 h
In test [1] the test system is OVCAR-3 ovarian.
In test [2] the test system is CCRF-CEM leukemia.
In test [3] the test system is RPMI-8226 leukemia.
In test [4] the test system is SK-MEL-28 melanoma.
Test [5] deals with SF-295 CNS.
Test [6] relates to CAKI-1 renal.
Test [7] deals with KM12 colon.
The subject of test [8] is NCI-H460 lung.
For test [9], the system named is SR leukemia.
Test [10] deals with M14 melanoma.

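Each compound was tested at five concentrations against cells in 96-well plates for 48 hours. Abbreviation: GI50, concentration required for 50% inhibition of growth. TGI: concentration producing complete growth inhibition.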

Turning to `CSC(CC(=O)O)C(=O)O` (stereo unspecified), the TGI in test [1], in [2], in [3], in test [4], in test [5] and in test [6] was greater than 100 µM in each case. In addition, the TGI in test [7], in [8], in test [9] and in test [10] was greater than 100 µM throughout.

Take `C=CCN(/C=C1/C(=O)O[C@H](COC)[C@@]2(C)C1=C(O)C(=O)C1=C2[C@H](OC(C)=O)C[C@]2(C)C(=O)CC[C@@H]12)CC=C`: the GI50 in test [1] was 0.562 µM; in [2], 0.709 µM; in [3] it was 2 µM; in test [4] it was 1.1 µM; in test [5], 0.573 µM; in test [6], 0.357 µM. Also, the GI50 in [7] is 2.52 µM; in test [8], 0.585 µM; in [9], 0.708 µM; in test [10], 2.95 µM. In addition, the TGI is greater than 10 µM in [1]; greater than 6.51 µM in [2]; greater than 10 µM in [3]; greater than 10 µM in [4]; greater than 10 µM in test [5]; greater than 10 µM in test [6]. Moreover, the TGI in [7], in test [8], in test [9] and in test [10] was greater than 10 µM each time.

As for `NC1CCCCC1.[O]=[Ge].[O]=[Ge].[O]=[Ge][OH].[O]=[Ge][OH]`, the TGI in [1], in test [2], in [3], in [4], in test [5] and in [6] was greater than 100 µM in each case. For the same molecule, the TGI in test [7], in [8], in test [9] and in test [10] was greater than 100 µM throughout. The GI50 in test [5], in test [6], in [9] and in [10] was greater than 100 µM throughout.

As for `CC1CC2CC(=O)CC3(C1)C2CCCN3CCCO` (stereo unspecified), the TGI in test [1], in test [2], in [3], in test [4], in [5] and in test [6] was greater than 100 µM each time. In addition, the TGI in test [7], in [8], in [9] and in [10] was greater than 100 µM in each case.

As to `CC1OC2=N[C@@H]1C(=O)N[C@@H](C(C)C)C1=N[C@H](C(=O)N[C@@H](C(C)C)C3=N[C@H](C(=O)N[C@@H](C(C)C)C4=N[C@H](C(=O)N[C@H]2C(C)C)C(C)O4)C(C)O3)C(C)O1` (stereo partly specified), the TGI in test [1], in [2], in test [3], in test [4], in test [5] and in test [6] was greater than 10 µM each time. Moreover, the TGI in test [7], in test [8], in test [9] and in test [10] was greater than 10 µM each time.

Take `O=C1C(c2c[nH]c3ccccc23)=C(c2c[nH]c3ccccc23)C(=O)N1O`: the GI50 was greater than 25 µM in test [1]; greater than 25 µM in test [2]; greater than 25 µM in test [3]; greater than 25 µM in test [4]; greater than 25 µM in [5]; greater than 20.8 µM in test [6]. In addition, the GI50 in [7], in test [8], in [9] and in test [10] was greater than 25 µM throughout. The TGI in test [1], in [2], in test [3], in [4], in [5] and in test [6] was greater than 25 µM in each case. Further, the TGI in test [7], in test [8], in [9] and in test [10] was greater than 25 µM each time.

Turning to `O=C(Nc1cccs1)c1c(O)[nH]c(=S)[nH]c1=O`, the TGI in [1], in test [2], in test [3], in [4], in [5] and in test [6] was greater than 100 µM throughout. Further, the TGI in test [7], in test [8], in test [9] and in [10] was greater than 100 µM throughout.

For the molecule `COC[C@@H](N=CN1CCc2cc(OC)c(OC)cc2[C@@H]1C)C(C)(C)C`, the TGI in test [1], in test [2], in test [3], in [4], in test [5] and in test [6] was greater than 100 µM throughout. Moreover, the TGI in test [7], in test [8], in test [9] and in test [10] was greater than 100 µM in each case.

In the case of `O=C(/C=C/C12c3ccccc3C(c3ccccc31)C1C(=O)N(c3ccccc3)C(=O)C12)c1ccccc1` (stereo unspecified), the GI50 in [1] is 2.22 µM; in test [2], 1.45 µM; in test [3], 1.55 µM; in [4], 2.48 µM; in test [6], 1.5 µM; in [7] it was 2.64 µM. The GI50 is 1.92 µM in test [8], 2.02 µM in test [9] and 2.51 µM in test [10]. In addition, the TGI in test [1] is 7.09 µM; in test [2], greater than 100 µM; in test [3], 7.69 µM; in [4], 7.09 µM; in [6], greater than 100 µM; in [7], greater than 100 µM. Besides, the TGI in [8] is 4.69 µM; in test [9], greater than 100 µM; in [10], 10.1 µM.

With `O=Cc1ccccc1OCCOc1cc(OCCOc2ccccc2C=O)c(OCCOc2ccccc2C=O)cc1OCCOc1ccccc1C=O`, the TGI in test [1], in [2], in test [3], in test [4], in [6] and in test [7] was greater than 100 µM throughout. In addition, the TGI in [8], in test [9] and in [10] was greater than 100 µM in each case.
